Experimental data from the NIST ThermoML archive (doi:10.1021/je020065c).

Experiments:
[1] = 303.1 K; 101.33 kPa; Liquid; pycnometer
[2] = Boiling temperature at pressure P; details: 101.3 kPa; Liquid; ebulliometry
[3] = excess molar enthalpy (molar enthalpy of mixing); xn = mol fraction of the nth substance listed; details: 298.15 K, 101.3 kPa, Liquid

CC(Cl)(Cl)Cl [1,1,1-trichloroethane]
Details | Boiling temperature at pressure P [°C] | mass density [kg/m3]
[1] | – | 1320.94
[2] | 74.20 | –

CC(Cl)(Cl)Cl [1,1,1-trichloroethane] + CN1CCCC1=O
[3]
Details | excess molar enthalpy [kcal/mol]
x1 = 0.0303 | -0.0145
x1 = 0.0662 | -0.0323
x1 = 0.1039 | -0.0497
x1 = 0.1525 | -0.0702
x1 = 0.2006 | -0.0895
x1 = 0.2534 | -0.106
x1 = 0.3046 | -0.122
x1 = 0.3555 | -0.133
x1 = 0.4018 | -0.139
x1 = 0.4556 | -0.139
x1 = 0.5054 | -0.139
x1 = 0.5576 | -0.137
x1 = 0.6104 | -0.141
x1 = 0.6634 | -0.141
x1 = 0.7153 | -0.135
x1 = 0.7694 | -0.122
x1 = 0.8172 | -0.117
x1 = 0.8714 | -0.103
x1 = 0.9228 | -0.0783
x1 = 0.9649 | -0.0437

ClC(Cl)C(Cl)Cl [1,1,2,2-tetrachloroethane]
Details | Boiling temperature at pressure P [°C] | mass density [kg/m3]
[1] | – | 1578.58
[2] | 146.20 | –

ClC(Cl)C(Cl)Cl [1,1,2,2-tetrachloroethane] + CN1CCCC1=O
[3]
Details | excess molar enthalpy [kcal/mol]
x1 = 0.0331 | -0.113
x1 = 0.0582 | -0.205
x1 = 0.0765 | -0.256
x1 = 0.1279 | -0.426
x1 = 0.1292 | -0.413
x1 = 0.1796 | -0.555
x1 = 0.2318 | -0.704
x1 = 0.2344 | -0.695
x1 = 0.288 | -0.838
x1 = 0.3219 | -0.893
x1 = 0.34 | -0.963
x1 = 0.4028 | -1.01
x1 = 0.4675 | -1.09
x1 = 0.5226 | -1.14
x1 = 0.5688 | -1.16
x1 = 0.5953 | -1.16
x1 = 0.6265 | -1.09
x1 = 0.6815 | -1
x1 = 0.7384 | -0.89
x1 = 0.7933 | -0.742
x1 = 0.8536 | -0.533
x1 = 0.9099 | -0.354
x1 = 0.9574 | -0.179

ClCCCl [1,2-dichloroethane]
Details | Boiling temperature at pressure P [°C] | mass density [kg/m3]
[1] | – | 1238.3
[2] | 83.80 | –

ClCCCl [1,2-dichloroethane] + CN1CCCC1=O
[3]
Details | excess molar enthalpy [kcal/mol]
x1 = 0.0658 | -0.0565
x1 = 0.1316 | -0.11
x1 = 0.1959 | -0.159
x1 = 0.2633 | -0.205
x1 = 0.331 | -0.248
x1 = 0.3947 | -0.282
x1 = 0.4525 | -0.301
x1 = 0.592 | -0.267
x1 = 0.6421 | -0.246
x1 = 0.6925 | -0.217
x1 = 0.7469 | -0.194
x1 = 0.8024 | -0.162
x1 = 0.856 | -0.123
x1 = 0.9111 | -0.0802
x1 = 0.9608 | -0.0403

CN1CCCC1=O [N-methylpyrrolidone]
Details | Boiling temperature at pressure P [°C] | mass density [kg/m3]
[1] | – | 1023.4
[2] | 202.30 | –

ClC(Cl)=C(Cl)Cl [tetrachloroethene]
Details | Boiling temperature at pressure P [°C] | mass density [kg/m3]
[1] | – | 1606.4
[2] | 121.00 | –

ClC(Cl)=C(Cl)Cl [tetrachloroethene] + CN1CCCC1=O
[3]
Details | excess molar enthalpy [kcal/mol]
x1 = 0.039 | -0.00239
x1 = 0.0887 | -0.00292
x1 = 0.1357 | -0.0012
x1 = 0.2415 | 0.007
x1 = 0.2932 | 0.0137
x1 = 0.3454 | 0.0214
x1 = 0.536 | 0.0623
x1 = 0.6006 | 0.0709
x1 = 0.6688 | 0.0803
x1 = 0.742 | 0.0775
x1 = 0.813 | 0.0706
x1 = 0.8822 | 0.0566
x1 = 0.9441 | 0.0342

ClC=C(Cl)Cl [trichloroethene]
Details | Boiling temperature at pressure P [°C] | mass density [kg/m3]
[1] | – | 1451.2
[2] | 87.10 | –

ClC=C(Cl)Cl [trichloroethene] + CN1CCCC1=O
[3]
Details | excess molar enthalpy [kcal/mol]
x1 = 0.0381 | -0.0454
x1 = 0.0886 | -0.106
x1 = 0.1426 | -0.158
x1 = 0.2005 | -0.216
x1 = 0.2675 | -0.276
x1 = 0.3373 | -0.343
x1 = 0.4001 | -0.394
x1 = 0.6547 | -0.343
x1 = 0.7095 | -0.315
x1 = 0.7643 | -0.28
x1 = 0.8186 | -0.23
x1 = 0.873 | -0.176
x1 = 0.9254 | -0.112
x1 = 0.9678 | -0.0504
